Among the test systems are SN12C renal; SF-268 CNS; HT29 colon; SNB-19 CNS; T-47D breast; HCC-2998 colon; HOP-62 NSCLC; A498 renal; MDA-MB-435; UO-31 renal.
Test in all cases: NCI anticancer screen, dose series, 48 h

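Five compound concentrations were applied to cells in 96-well plates for 48 hours; endpoints were derived by simple linear interpolation of the resulting dose-response curve. Abbreviation: GI50, concentration required for 50% inhibition of growth. The concentration for full growth arrest is given as TGI.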

On to `O=C1OC(c2ccc([N+](=O)[O-])cc2)=N/C1=C\c1ccc(O)cc1`, for which the TGI in the experiment on SN12C renal, in the experiment on SF-268 CNS, in the experiment with HT29 colon, in the experiment on SNB-19 CNS, with T-47D breast and in the experiment on HCC-2998 colon was more than 100 µM in each case. The TGI with HOP-62 NSCLC, with A498 renal and in the experiment on MDA-MB-435 was more than 100 µM each time.
As to `O=C1C(Nc2ccccn2)=C(I)C(=O)c2ncccc21`, the GI50 was 0.889 µM with SN12C renal; 1.34 µM in the experiment with SF-268 CNS; 2.75 µM in the experiment on HT29 colon; 1.04 µM with SNB-19 CNS; 1.36 µM in the experiment with T-47D breast; 1.53 µM in the experiment on HCC-2998 colon. Moreover, the GI50 in the experiment on HOP-62 NSCLC was 1.12 µM; in the experiment with A498 renal, 1.26 µM; with MDA-MB-435, 0.307 µM. Also, the TGI with SN12C renal is 2.56 µM; with SF-268 CNS it was 3.8 µM; with HT29 colon it was 8.48 µM; in the experiment on SNB-19 CNS, 2.24 µM; in the experiment with T-47D breast, 3.82 µM; in the experiment with HCC-2998 colon, 2.98 µM. For the same compound, the TGI was determined as 2.43 µM in the experiment with HOP-62 NSCLC, 2.74 µM with A498 renal and 0.947 µM with MDA-MB-435.
For `CN(C)CCCC1(c2ccc(F)cc2)OCc2cc(-c3ccc4cc[nH]c4c3)ccc21` (stereo not drawn), the GI50 is 1.73 µM in the experiment on SN12C renal; 1.64 µM in the experiment on SF-268 CNS; 2.33 µM with HT29 colon; 1.79 µM with SNB-19 CNS; 1.45 µM in the experiment on UO-31 renal; 2.01 µM in the experiment with T-47D breast. The GI50 was 1.84 µM in the experiment on HCC-2998 colon, 1.71 µM with HOP-62 NSCLC and 1.73 µM with MDA-MB-435. In addition, the TGI in the experiment with SN12C renal is 3.56 µM; with SF-268 CNS, 3.26 µM; in the experiment with HT29 colon, 5.93 µM; in the experiment with SNB-19 CNS, 3.67 µM; in the experiment with UO-31 renal it was 2.82 µM; in the experiment on T-47D breast it was 5.17 µM. For the same compound, the TGI in the experiment on HCC-2998 colon was determined as 3.48 µM; in the experiment with HOP-62 NSCLC, 3.71 µM; in the experiment on MDA-MB-435, 3.23 µM.
For `NC1=C(c2nc(-c3cc4ccccc4oc3=O)cs2)C(c2ccco2)c2c(c3ccccc3oc2=O)O1` (stereo not drawn), the GI50 in the experiment with SN12C renal was more than 150 µg/mL; with SF-268 CNS, 68.4 µg/mL; in the experiment on HT29 colon, more than 150 µg/mL; in the experiment on SNB-19 CNS it was 53.1 µg/mL; in the experiment with T-47D breast, more than 150 µg/mL; with HCC-2998 colon it was more than 150 µg/mL. Besides, the GI50 is 22.4 µg/mL in the experiment with HOP-62 NSCLC, 66.1 µg/mL with A498 renal and more than 150 µg/mL in the experiment on MDA-MB-435. In addition, the TGI with SN12C renal, with SF-268 CNS, in the experiment with HT29 colon, in the experiment on SNB-19 CNS, with T-47D breast and in the experiment with HCC-2998 colon was more than 150 µg/mL in each case. For the same compound, the TGI in the experiment on HOP-62 NSCLC is 81.1 µg/mL; in the experiment on A498 renal it was more than 150 µg/mL; in the experiment on MDA-MB-435 it was more than 150 µg/mL.
Consider `COc1ccc(OC)c(-c2nc3sccn3c2/C=C2/C(=O)Nc3ccccc32)c1`, for which the GI50 in the experiment on SN12C renal is 4.65 µM; with SF-268 CNS it was 1.33 µM; in the experiment on HT29 colon, 0.355 µM; in the experiment on SNB-19 CNS, 1.72 µM; in the experiment with UO-31 renal, 1.1 µM; in the experiment with T-47D breast, 7.82 µM. Further, the values for the GI50 in the experiment with HOP-62 NSCLC and with MDA-MB-435 were 0.123 µM and 0.111 µM, respectively. The TGI was 33.8 µM in the experiment with SN12C renal; 24.2 µM in the experiment on SF-268 CNS; more than 22.7 µM in the experiment on SNB-19 CNS; more than 41 µM with UO-31 renal; more than 49.4 µM with T-47D breast; 4.41 µM in the experiment with HOP-62 NSCLC. The same compound gave a TGI with MDA-MB-435 of 0.293 µM.
On to `C/C=C(/C)C(=O)OC1C=C(CO)C(=O)C(OC(=O)/C(C)=C\C)C1C(C)C` (stereo not drawn), for which the GI50 in the experiment on SN12C renal was 0.546 µM; with SF-268 CNS, 1.46 µM; with HT29 colon, 0.625 µM; with SNB-19 CNS, 1.46 µM; in the experiment on UO-31 renal it was 1.29 µM; in the experiment with HCC-2998 colon, 1.71 µM. Further, the GI50 in the experiment with HOP-62 NSCLC was 2.03 µM; in the experiment with A498 renal, 1.55 µM; in the experiment on MDA-MB-435, 0.95 µM. Moreover, the TGI with SN12C renal is 1.59 µM; with SF-268 CNS, 3.05 µM; in the experiment with HT29 colon, 2.33 µM; in the experiment with SNB-19 CNS it was 2.85 µM; in the experiment on UO-31 renal, 2.57 µM; in the experiment on HCC-2998 colon, 3.27 µM. The values for the TGI in the experiment with HOP-62 NSCLC, in the experiment on A498 renal and in the experiment on MDA-MB-435 were 3.73 µM, 2.95 µM and 2.33 µM, respectively.
For `N#Cc1c(NC(=O)CCC(=O)O)ccc2ccccc12`, the TGI in the experiment with SN12C renal, with SF-268 CNS, in the experiment on HT29 colon, in the experiment with SNB-19 CNS, in the experiment on UO-31 renal and in the experiment with T-47D breast was more than 100 µM throughout. Further, the TGI with HOP-62 NSCLC, in the experiment on A498 renal and in the experiment with MDA-MB-435 was more than 100 µM throughout.
As for `O=c1cccc(C#CCCCCOC2CCCO2)o1` (stereo not drawn), the GI50 is 98.6 µM in the experiment with SN12C renal; 9.14 µM in the experiment with SF-268 CNS; 16.5 µM in the experiment on HT29 colon; more than 28.6 µM in the experiment on SNB-19 CNS; 9.07 µM with UO-31 renal; 22.7 µM with T-47D breast. Also, the GI50 in the experiment on HOP-62 NSCLC was 7.88 µM; in the experiment with A498 renal, 4.09 µM; with MDA-MB-435, 16.1 µM. The TGI in the experiment on SN12C renal was more than 100 µM; in the experiment with SF-268 CNS, more than 77.6 µM; in the experiment on HT29 colon, more than 60.5 µM; in the experiment on SNB-19 CNS, more than 56.5 µM; in the experiment with UO-31 renal, more than 57.6 µM; in the experiment with T-47D breast it was more than 48.8 µM. The TGI in the experiment with HOP-62 NSCLC was 18.2 µM; with MDA-MB-435 it was 44.8 µM.
For the compound `COC(=O)/C(=C/N1CCN(C(=O)c2ccco2)C1=S)C(C)=O`, the GI50 in the experiment on SN12C renal is 5.93 µM; in the experiment with SF-268 CNS, 5.84 µM; with HT29 colon, 15.8 µM; in the experiment with SNB-19 CNS, 41.7 µM; with UO-31 renal, 13.5 µM; with T-47D breast it was 6.02 µM. Moreover, the GI50 in the experiment with HOP-62 NSCLC was 20.6 µM; with MDA-MB-435, 4.51 µM. In addition, the TGI in the experiment on SN12C renal was determined as 22.4 µM; with SF-268 CNS it was 25.6 µM; with HT29 colon, 46 µM; in the experiment with SNB-19 CNS it was 94.8 µM; with UO-31 renal, 30.9 µM; with T-47D breast, 29.8 µM. The TGI in the experiment on HOP-62 NSCLC was determined as 42.8 µM; in the experiment on MDA-MB-435, 36.6 µM.

The values are drawn from PubChem BioAssay (NCI).
